Source: PubChem BioAssay AID2060513 (Molecular Pharmacology Branch, DTP, NCI, 2025)

System: 299254-011-R-J1-PDC complex spheroids viability
Test: Anticancer human tumor 299254-011-R-J1-PDC patient-derived melanoma cell line growth inhibition [GQUAD]
Conditions: for IC50: curve of first compound; for viability, T/C: stronger effect = lower value
How it was run: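 Multi-cell-type spheroids of tumor cells with HUVEC and mesenchymal stem cells, treated with drug combinations. Concentrations descend in half-log steps from near clinical Cmax, or from 10 microM where Cmax is unknown; viability read-out.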

[1] = second compound 0.0316 µM, first compound 0.0316 µM
[2] = second compound 0.0316 µM, first compound 0.1 µM
[3] = second compound 0.0316 µM, first compound 0.316 µM
[4] = second compound 0.0316 µM, first compound 1 µM
[5] = second compound 0.0316 µM, first compound 3.16 µM
[6] = second compound 0.0316 µM, first compound 10 µM
[7] = second compound 0.1 µM, first compound 0.0316 µM
[8] = second compound 0.1 µM, first compound 0.1 µM
[9] = second compound 0.1 µM, first compound 0.316 µM
[10] = second compound 0.1 µM, first compound 1 µM
[11] = second compound 0.1 µM, first compound 3.16 µM
[12] = second compound 0.1 µM, first compound 10 µM
[13] = second compound 0.316 µM, first compound 0.0316 µM
[14] = second compound 0.316 µM, first compound 0.1 µM
[15] = second compound 0.316 µM, first compound 0.316 µM
[16] = second compound 0.316 µM, first compound 1 µM
[17] = second compound 0.316 µM, first compound 3.16 µM
[18] = second compound 0.316 µM, first compound 10 µM
[19] = second compound 1 µM, first compound 0.0316 µM
[20] = second compound 1 µM, first compound 0.1 µM
[21] = second compound 1 µM, first compound 0.316 µM
[22] = second compound 1 µM, first compound 1 µM
[23] = second compound 1 µM, first compound 3.16 µM
[24] = second compound 1 µM, first compound 10 µM
[25] = second compound 3.16 µM, first compound 0.0316 µM
[26] = second compound 3.16 µM, first compound 0.1 µM
[27] = second compound 3.16 µM, first compound 0.316 µM
[28] = second compound 3.16 µM, first compound 1 µM
[29] = second compound 3.16 µM, first compound 3.16 µM
[30] = second compound 3.16 µM, first compound 10 µM
[31] = second compound 10 µM, first compound 0.0316 µM
[32] = second compound 10 µM, first compound 0.1 µM
[33] = second compound 10 µM, first compound 0.316 µM
[34] = second compound 10 µM, first compound 1 µM
[35] = second compound 10 µM, first compound 3.16 µM
[36] = second compound 10 µM, first compound 10 µM
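Also: spheroids exposed to the agents for seven days before readout.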
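For viability, T/C in this document: percent viability relative to DMSO vehicle control wells = 100%.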

For `CC1COCCN1c1cc(C2(O)CC3CCC(C2)O3)c2cnn(-c3ccn[nH]3)c2n1` (stereo not drawn) + Cc1cnc(CNC(=O)c2c(=O)c3ccc(N4CCCN(C)CC4)nc3n3c2sc2ccccc23)cn1, the IC50 (second compound 0.0316 µM) was 0.0893 µM, the IC50 (second compound 0.1 µM) was 0.104 µM and the IC50 (second compound 0.316 µM) was < 0.0316 µM. The IC50 (second compound 1 µM) was < 0.0316 µM, the IC50 (second compound 3.16 µM) was < 0.0316 µM and the IC50 (second compound 10 µM) was < 0.0316 µM. For the same compound, the viability, T/C [1] was 94.4%, the viability, T/C [2] was 41.6% and the viability, T/C [3] was 28.7%. The viability, T/C [4] was 11.4%, the viability, T/C [5] was 13% and the viability, T/C [6] was 3.95%. The viability, T/C [7] was 58.6%, the viability, T/C [8] was 51.5% and the viability, T/C [9] was 18.6%. The viability, T/C [10] was 14.1%, the viability, T/C [11] was 9.97% and the viability, T/C [12] was 4.33%. The viability, T/C [13] was 31.4%, the viability, T/C [14] was 32% and the viability, T/C [15] was 14.3%. It also gave a viability, T/C [16] of 15.9%, a viability, T/C [17] of 11% and a viability, T/C [18] of 4.06%. For the same compound, the viability, T/C [19] was 22.3%, the viability, T/C [20] was 21% and the viability, T/C [21] was 17.1%. The viability, T/C [22] was 12.8%, the viability, T/C [23] was 14.8% and the viability, T/C [24] was 6.33%. It also gave a viability, T/C [25] of 18.8%, a viability, T/C [26] of 22.3% and a viability, T/C [27] of 17.1%. For the same compound, the viability, T/C [28] was 10.6%, the viability, T/C [29] was 13.1% and the viability, T/C [30] was 7.02%. For the same compound, the viability, T/C [31] was 0.16%, the viability, T/C [32] was 0.22% and the viability, T/C [33] was 0.23%. The viability, T/C [34] was 0.17%, the viability, T/C [35] was 0.29% and the viability, T/C [36] was 0.23%.

In the case of `CC1COCCN1c1cc(C2(S(C)(=N)=O)CC2)nc(-c2ccnc3[nH]ccc23)n1` (stereo not drawn) + Cc1cnc(CNC(=O)c2c(=O)c3ccc(N4CCCN(C)CC4)nc3n3c2sc2ccccc23)cn1, the IC50 (second compound 0.0316 µM) is reported as 1.65 µM, the IC50 (second compound 0.1 µM) is reported as 2.48 µM and the IC50 (second compound 0.316 µM) is reported as 1.68 µM. The IC50 (second compound 1 µM) was 0.524 µM, the IC50 (second compound 3.16 µM) was 0.517 µM and the IC50 (second compound 10 µM) was < 0.0316 µM. The viability, T/C [1] was 93%, the viability, T/C [2] was 89.9% and the viability, T/C [3] was 76.7%. For the same compound, the viability, T/C [4] was 61.8%, the viability, T/C [5] was 36% and the viability, T/C [6] was 22%. For the same compound, the viability, T/C [7] was 80.8%, the viability, T/C [8] was 95.6% and the viability, T/C [9] was 78.9%. It also gave a viability, T/C [10] of 79.4%, a viability, T/C [11] of 42.2% and a viability, T/C [12] of 18.7%. It also gave a viability, T/C [13] of 80.6%, a viability, T/C [14] of 97.1% and a viability, T/C [15] of 96.7%. For the same compound, the viability, T/C [16] was 69.8%, the viability, T/C [17] was 25.7% and the viability, T/C [18] was 15.6%. For the same compound, the viability, T/C [19] was 71.9%, the viability, T/C [20] was 83.1% and the viability, T/C [21] was 48.7%. It also gave a viability, T/C [22] of 44.1%, a viability, T/C [23] of 24.4% and a viability, T/C [24] of 17.1%. It also gave a viability, T/C [25] of 76.3%, a viability, T/C [26] of 72.3% and a viability, T/C [27] of 63.7%. It also gave a viability, T/C [28] of 31.9%, a viability, T/C [29] of 22.8% and a viability, T/C [30] of 19.1%. The viability, T/C [31] was 0.39%, the viability, T/C [32] was 19.2% and the viability, T/C [33] was 44.1%. For the same compound, the viability, T/C [34] was 26.4%, the viability, T/C [35] was 0.34% and the viability, T/C [36] was 0.27%.

In the case of `Cc1cccc(N(C)C(=O)C2C(O)CCN2c2nc(C)cc(C(F)(F)F)c2C#N)c1` (stereo not drawn) + Cc1cnc(CNC(=O)c2c(=O)c3ccc(N4CCCN(C)CC4)nc3n3c2sc2ccccc23)cn1, the IC50 (second compound 0.0316 µM) is reported as > 10 µM, the IC50 (second compound 0.1 µM) is reported as > 10 µM and the IC50 (second compound 0.316 µM) is reported as > 10 µM. The IC50 (second compound 1 µM) was > 10 µM, the IC50 (second compound 3.16 µM) was > 10 µM and the IC50 (second compound 10 µM) was > 10 µM. It also gave a viability, T/C [1] of 120%, a viability, T/C [2] of 115% and a viability, T/C [3] of 117%. The viability, T/C [4] was 89.3%, the viability, T/C [5] was 87.6% and the viability, T/C [6] was 112%. It also gave a viability, T/C [7] of 88.9%, a viability, T/C [8] of 112% and a viability, T/C [9] of 95.6%. The viability, T/C [10] was 92.9%, the viability, T/C [11] was 120% and the viability, T/C [12] was 100%. It also gave a viability, T/C [13] of 94.3%, a viability, T/C [14] of 96.5% and a viability, T/C [15] of 93.2%. The viability, T/C [16] was 93.8%, the viability, T/C [17] was 107% and the viability, T/C [18] was 114%. For the same compound, the viability, T/C [19] was 91.8%, the viability, T/C [20] was 94% and the viability, T/C [21] was 103%. The viability, T/C [22] was 85.9%, the viability, T/C [23] was 92.1% and the viability, T/C [24] was 83.5%. The viability, T/C [25] was 71.9%, the viability, T/C [26] was 75.2% and the viability, T/C [27] was 95.3%. It also gave a viability, T/C [28] of 85.8%, a viability, T/C [29] of 86.5% and a viability, T/C [30] of 85.5%. For the same compound, the viability, T/C [31] was 82%, the viability, T/C [32] was 71.9% and the viability, T/C [33] was 64.8%. It also gave a viability, T/C [34] of 84.4%, a viability, T/C [35] of 63.5% and a viability, T/C [36] of 52%.

`O=C(c1cc(Cc2n[nH]c(=O)c3ccccc23)ccc1F)N1CCN(C(=O)C2CC2)CC1` + Cc1cnc(CNC(=O)c2c(=O)c3ccc(N4CCCN(C)CC4)nc3n3c2sc2ccccc23)cn1 was tested, and the IC50 (second compound 0.0316 µM) was > 10 µM, the IC50 (second compound 0.1 µM) was > 10 µM and the IC50 (second compound 0.316 µM) was > 10 µM. The IC50 (second compound 1 µM) was > 10 µM, the IC50 (second compound 3.16 µM) was > 10 µM and the IC50 (second compound 10 µM) was < 0.0316 µM. It also gave a viability, T/C [1] of 99.3%, a viability, T/C [2] of 92.8% and a viability, T/C [3] of 94.1%. The viability, T/C [4] was 83.4%, the viability, T/C [5] was 87.2% and the viability, T/C [6] was 81.5%. It also gave a viability, T/C [7] of 102%, a viability, T/C [8] of 99.8% and a viability, T/C [9] of 89.7%. It also gave a viability, T/C [10] of 98.4%, a viability, T/C [11] of 117% and a viability, T/C [12] of 81.6%. The viability, T/C [13] was 81.6%, the viability, T/C [14] was 97.2% and the viability, T/C [15] was 91.3%. For the same compound, the viability, T/C [16] was 102%, the viability, T/C [17] was 103% and the viability, T/C [18] was 73.9%. It also gave a viability, T/C [19] of 78%, a viability, T/C [20] of 79.5% and a viability, T/C [21] of 82.7%. The viability, T/C [22] was 73.5%, the viability, T/C [23] was 75.6% and the viability, T/C [24] was 66%. It also gave a viability, T/C [25] of 67.1%, a viability, T/C [26] of 91.5% and a viability, T/C [27] of 93.7%. The viability, T/C [28] was 78.8%, the viability, T/C [29] was 69.5% and the viability, T/C [30] was 67.9%. For the same compound, the viability, T/C [31] was 0.42%, the viability, T/C [32] was 20.2% and the viability, T/C [33] was 52.3%. The viability, T/C [34] was 41.7%, the viability, T/C [35] was 0.43% and the viability, T/C [36] was 0.33%.
